Values quoted from earlier work as cited in patent publication US20200281206A1, “SEXUAL ATTRACTION PHEROMONE OF TRIBOLIUM CASTANEUM AND INSECT CONTROL DEVICE” (YPF TECNOLOGÍA S.A., priority 2019, published 2020).

Tested on: Tribolium castaneum
Conditions: prior-art finding

SMILES: CCC(C)CCCC(C)CCC=O (stereo not shown) [4,8-dimethyldecanal]
- sex of insects attracted: attracts both male and female insects
